From PMC9952066 (2023)

Tests used:
[1] = test system: r-PQS4 (FEN1 rG4) (RNA, G4) AGGGGCCUGCGGGGACCUGGUGUGGGUGGAGUGGGGAC; test: UV-Vis absorption shift; details: 100 mM KCl, 12 mM NaCl; 50 mM Tris-HCl pH 7.4; pre-folded RNA 5 μM; TMPyP4 printed as 100 mM
[2] = test system: FAM-labeled FEN1 rG4 (RNA, G4) AGGGGCCUGCGGGGACCUGGUGUGGGUGGAGUGGGGAC; test: native PAGE mobility (G4 unfolding); details: 100 mM KCl, 12 mM NaCl; 100 mM KCl in gel; 12% gel, 4 °C; RNA 5 μM; TMPyP4 unfolds rG4
[3] = test system: r-PQS4 (FEN1 rG4) (RNA, G4) AGGGGCCUGCGGGGACCUGGUGUGGGUGGAGUGGGGAC; test: CD titration (loss of 265 nm ellipticity); details: 100 mM KCl, 12 mM NaCl; 50 mM Tris-HCl pH 7.4; RNA 5 μM; TMPyP4 added before annealing (legend: pre-folded); disrupts G4

Measured: binding

C[n+]1ccc(-c2c3nc(c(-c4cc[n+](C)cc4)c4ccc([nH]4)c(-c4cc[n+](C)cc4)c4nc(c(-c5cc[n+](C)cc5)c5ccc2[nH]5)C=C4)C=C3)cc1
yes: [1] | [2] | [3]
